Test results taken from patent publication EP3722296B1, “DIHYDRONAPHTHYRIDINES AND RELATED COMPOUNDS USEFUL AS KINASE INHIBITORS FOR THE TREATMENT OF PROLIFERATIVE DISEASES” (Deciphera Pharmaceuticals, LLC, priority 2012, dated 2013).

Key:
[1] = test system: GIST T1 cells; assay: GIST T1 Cell Proliferation Assay; type: cell-based; settings: Homo sapiens, GISTT1, 72 h, 68 hours + 4 hours resazurin
[2] = molecular target: T1, Phospho-KIT (Tyr719) (Homo sapiens, UniProt P10721, DEL560-578); assay: GIST T1 KIT Western Blot; type: cell-based; settings: GIST T1 cells, 4 hours, serum-free medium; read-out: pKIT suppression by western blot analysi GIST T1
T1 construct: endogenous in cells; host or cells: GIST T1
Procedure: GIST48, GIST430, and GIST882 cells were obtained from J. Fletcher (Brigham and Women's Hospital, Boston, MA). GIST T1 cells were obtained from B. Rubin (Cleveland Clinic, Cleveland, OH) and Professor Takahiro Taguchi (Kochi Medical School, Nankoku, Kochi, Japan). […] GIST430 cells were grown in Ham's F10 medium supplemented with 15% characterized fetal bovine serum (Invitrogen, Carlsbad, CA), 30 mg/L bovine pituitary extract (BD Biosciences, San Jose, CA), 0.5% Mito+ serum extender (BD Biosciences, San Jose, CA), 1 unit/mL penicillin G, 1 µg/ml streptomycin, and 0.29 mg/mL L-glutamine at 37 °C, 5%CO2, 95% humidity. GIST T1 cells were grown in DMEM medium supplemented with 10% characterized fetal bovine serum (Invitrogen, Carlsbad, CA), 1 unit/mL penicillin G, 1 µg/ml streptomycin, and 0.29 mg/mL L-glutamine at 37 °C, 5% CO2, and 95% humidity. Cells were allowed to expand until reaching 70-95% confluence at which point they were subcultured or harvested for assay use.
One hundred twenty-five thousand cells were added per well in a 24-well tissue-culture treated plate. Cells were then incubated overnight at 37°C, 5% CO2, 95% humidity. Medium was aspirated, cells were washed with PBS, and serum-free DMEM medium was added. A serial dilution of test compound was added to plates containing cells and plates were incubated for 4 hours at 37°C, 5% CO2, 95% humidity. Cells were washed with PBS, then lysed. Cell lysates were separated by SDS-PAGE and transferred to PVDF. Phospho-KIT (Tyr719) was detected using an antibody from Cell Signaling Technology (Beverly, MA), ECL Plus detection reagent (GE Healthcare, Piscataway, NJ) and a Molecular Devices Storm 840 phosphorimager in fluorescence mode. Blots were stripped and probed for total KIT using an antibody from Santa Cruz Biotech (Santa Cruz, CA). IC50 values were calculated using Prism software (Graphpad, San Diego, CA).

[3] = molecular target: T2, c-KIT VVDV kinase (Homo sapiens, UniProt P10721, D816V/DEL559-560); assay: cKIT-VVDV kinase Assay; type: biochemical; settings: enzymatic assay; V559+V560 deletions and D816V mutation
T2 construct: This construct contains residues T544-V976 of cKit; GST (N); TEV cleavage site (internal); purchased deCODE Biostructures
Procedure: In this assay, the oxidation of NADH (measured by decrease in absorbance at 340 nm) was continuously monitored spectrophotometrically. […] The inhibition reaction was started by mixing serial diluted test compound with the above reaction mixture. The absorption at 340 nm was monitored continuously for 5 hours at 30 °C on Synergy 2 plate reader (BioTech). […] The protein construct was prepared by deCODE Biostructures using procedures known in the art. […] This construct is identical to Seq ID no.

[4] = test system: Phospho-KIT (Tyr719); assay: GIST430 KIT Western Blot; type: cell-based; settings: GIST430 cells, 4 hours, serum-free medium; read-out: pKIT suppression by western blot analysi GIST430
In short: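 GIST430 cells were compound-treated in serum-free Ham's F10, then lysed. Phospho-KIT (Tyr719) was measured by western blot with fluorescence-mode ECL, and blots were reprobed for total KIT; IC50 derived from concentration response.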

T2 sequence (P10721 with tags, fused parts or gaps DEL559-560/D816V): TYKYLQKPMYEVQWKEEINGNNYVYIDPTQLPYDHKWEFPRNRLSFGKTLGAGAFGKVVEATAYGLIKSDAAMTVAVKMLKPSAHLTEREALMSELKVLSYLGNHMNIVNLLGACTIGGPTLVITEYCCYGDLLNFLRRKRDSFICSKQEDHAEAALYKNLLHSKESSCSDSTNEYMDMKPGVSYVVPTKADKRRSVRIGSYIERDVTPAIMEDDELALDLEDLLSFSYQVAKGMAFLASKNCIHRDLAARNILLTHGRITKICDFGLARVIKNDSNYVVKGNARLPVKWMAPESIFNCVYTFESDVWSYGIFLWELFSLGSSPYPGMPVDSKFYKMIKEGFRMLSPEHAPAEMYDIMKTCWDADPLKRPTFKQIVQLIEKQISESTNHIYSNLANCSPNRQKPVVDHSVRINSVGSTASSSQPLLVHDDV
T1 sequence (P10721 with tags, fused parts or gaps DEL560-578): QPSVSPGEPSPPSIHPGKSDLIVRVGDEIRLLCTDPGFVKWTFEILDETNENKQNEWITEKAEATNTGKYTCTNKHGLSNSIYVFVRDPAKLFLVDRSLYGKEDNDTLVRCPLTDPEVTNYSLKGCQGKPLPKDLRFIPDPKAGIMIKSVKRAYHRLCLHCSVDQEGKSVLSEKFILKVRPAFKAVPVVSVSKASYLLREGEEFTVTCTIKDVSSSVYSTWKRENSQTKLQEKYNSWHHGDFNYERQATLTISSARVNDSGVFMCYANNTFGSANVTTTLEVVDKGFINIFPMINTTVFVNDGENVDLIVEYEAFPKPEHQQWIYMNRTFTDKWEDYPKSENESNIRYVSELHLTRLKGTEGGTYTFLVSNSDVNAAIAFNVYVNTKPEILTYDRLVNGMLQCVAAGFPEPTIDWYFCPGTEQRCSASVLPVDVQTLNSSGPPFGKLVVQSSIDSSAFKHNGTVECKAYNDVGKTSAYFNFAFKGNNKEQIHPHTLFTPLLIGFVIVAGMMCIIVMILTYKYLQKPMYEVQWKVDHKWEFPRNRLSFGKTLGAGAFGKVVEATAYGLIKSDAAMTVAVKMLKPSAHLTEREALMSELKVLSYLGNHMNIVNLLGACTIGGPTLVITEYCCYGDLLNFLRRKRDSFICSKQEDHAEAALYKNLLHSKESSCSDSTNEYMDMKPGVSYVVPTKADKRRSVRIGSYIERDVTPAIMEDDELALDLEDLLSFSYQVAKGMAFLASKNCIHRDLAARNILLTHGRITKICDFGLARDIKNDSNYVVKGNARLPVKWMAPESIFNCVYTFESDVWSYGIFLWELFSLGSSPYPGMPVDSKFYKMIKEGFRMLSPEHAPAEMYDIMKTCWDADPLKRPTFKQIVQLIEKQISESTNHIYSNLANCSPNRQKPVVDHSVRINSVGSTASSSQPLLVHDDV

SMILES	IC50 [1]	IC50 [2]	IC50 [3]	IC50 [4]
CCn1c(=O)c(-c2cc(NC(=O)Nc3ccccc3)c(F)cc2Cl)cc2cnc(NC)cc21 [Example 3, 1-(4-chloro-5-(1-ethyl-7-(methylamino)-2-oxo-1,2-dihydro-1,6-naphthyridin-3-yl)-2-fluorophenyl)-3-phenylurea]	< 10 nM	< 10 nM	< 10 nM	–
CCn1c(=O)c(-c2cc(NC(=O)Nc3cccc(F)c3F)c(F)cc2Cl)cc2cnc(NC)cc21 [Example 4, 1-(4-chloro-5-(1-ethyl-7-(methylamino)-2-oxo-1,2-dihydro-1,6-naphthyridin-3-yl)-2-fluorophenyl)-3-(2,3-difluorophenyl)urea]	< 10 nM	–	< 10 nM	10 to 100 nM
CCn1c(=O)c(-c2cc(NC(=O)Nc3cccc4ccccc34)c(F)cc2Cl)cc2cnc(NC)cc21 [Example 6, 1-(4-chloro-5-(1-ethyl-7-(methylamino)-2-oxo-1,2-dihydro-1,6-naphthyridin-3-yl)-2-fluorophenyl)-3-(naphthalen-1-yl)urea]	10 to 100 nM	10 to 100 nM	< 10 nM	< 10 nM
CCn1c(=O)c(-c2cc(NC(=O)Nc3cccc(F)c3)c(F)cc2Cl)cc2cnc(N)cc21 [Example 20, 1-(5-(7-amino-1-ethyl-2-oxo-1,2-dihydro-1,6-naphthyridin-3-yl)-4-chloro-2-fluorophenyl)-3-(3-fluorophenyl)urea]	–	< 10 nM	< 10 nM	10 to 100 nM
CNc1cc2c(cn1)cc(-c1cc(NC(=O)Nc3ccccc3)c(F)cc1Cl)c(=O)n2C(C)C [Example 22, 1-(4-chloro-2-fluoro-5-(1-isopropyl-7-(methylamino)-2-oxo-1,2-dihydro-1,6-naphthyridin-3-yl)phenyl)-3-phenylurea]	< 10 nM	< 10 nM	< 10 nM	10 to 100 nM
CCn1c(=O)c(-c2cc(NC(=O)Nc3ccccc3)c(F)cc2C)cc2cnc(NC)cc21 [Example 23, 1-(5-(1-ethyl-7-(methylamino)-2-oxo-1,2-dihydro-1,6-naphthyridin-3-yl)-2-fluoro-4-methylphenyl)-3-phenylurea]	< 10 nM	< 10 nM	10 to 100 nM	–
CCn1c(=O)c(-c2cc(NC(=O)Nc3ccccc3F)c(F)cc2Cl)cc2cnc(NC)cc21 [Example 25, 1-[4-chloro-5-(1-ethyl-7-methylamino-2-oxo-1,2-dihydro-[1,6]naphthyridin-3-yl)-2-fluoro-phenyl]-3-(2-fluoro-phenyl)-urea]	< 10 nM	–	< 10 nM	10 to 100 nM
CCn1c(=O)c(-c2cc(NC(=O)Nc3ccccc3)c(F)cc2Cl)cc2cnc(NCCOC)cc21 [Example 27, 1-(4-chloro-5-(1-ethyl-7-(2-methoxyethylamino)-2-oxo-1,2-dihydro-1,6-naphthyridin-3-yl)-2-fluorophenyl)-3-phenylurea]	–	–	10 to 100 nM	10 to 100 nM
CCn1c(=O)c(-c2cc(NC(=O)Nc3ccccc3)c(F)cc2Br)cc2cnc(NCCOC)cc21 [Example 51, 1-(4-bromo-5-(1-ethyl-7-(2-methoxyethylamino)-2-oxo-1,2-dihydro-1,6-naphthyridin-3-yl)-2-fluorophenyl)-3-phenylurea]	< 10 nM	–	100 to 1000 nM	10 to 100 nM
CCn1c(=O)c(-c2cc(NC(=O)Nc3cc(F)cc(F)c3)c(F)cc2Cl)cc2cnc(NC)cc21 [Example 55, 1-(4-chloro-5-(1-ethyl-7-(methylamino)-2-oxo-1,2-dihydro-1,6-naphthyridin-3-yl)-2-fluorophenyl)-3-(3,5-difluorophenyl)urea]	< 10 nM	–	10 to 100 nM	10 to 100 nM
CCn1c(=O)c(-c2cc(NC(=O)Nc3ccccc3)c(F)cc2Br)cc2cnc(N)cc21 [Example 57, 1-(5-(7-amino-1-ethyl-2-oxo-1,2-dihydro-1,6-naphthyridin-3-yl)-4-bromo-2-fluorophenyl)-3-phenylurea]	< 10 nM	< 10 nM	–	10 to 100 nM
CCn1c(=O)c(-c2cc(NC(=O)Nc3cccc(F)c3)c(F)cc2C)cc2cnc(N)cc21 [Example 58, 1-(5-(7-amino-1-ethyl-2-oxo-1,2-dihydro-1,6-naphthyridin-3-yl)-2-fluoro-4-methylphenyl)-3-(3-fluorophenyl)urea]	< 10 nM	–	–	10 to 100 nM
CCn1c(=O)c(-c2cc(NC(=O)Nc3cc(F)cc(F)c3)c(F)cc2C)cc2cnc(NC)cc21 [Example 60, 1-(3,5-difluorophenyl)-3-(5-(1-ethyl-7-(methylamino)-2-oxo-1,2-dihydro-1,6-naphthyridin-3-yl)-2-fluoro-4-methylphenyl)urea]	10 to 100 nM	–	10 to 100 nM	10 to 100 nM
CCn1c(=O)c(-c2cc(NC(=O)Nc3cc(F)ccc3F)c(F)cc2C)cc2cnc(NC)cc21 [Example 61, 1-(2,5-difluorophenyl)-3-(5-(1-ethyl-7-(methylamino)-2-oxo-1,2-dihydro-1,6-naphthyridin-3-yl)-2-fluoro-4-methylphenyl)urea]	< 10 nM	–	< 10 nM	10 to 100 nM
CCn1c(=O)c(-c2cc(NC(=O)Nc3cc(F)cc(F)c3)c(F)cc2Cl)cc2cnc(NC(C)=O)cc21 [Example 67, N-(3-(2-chloro-5-(3-(3,5-difluorophenyl)ureido)-4-fluorophenyl)-1-ethyl-2-oxo-1,2-dihydro-1,6-naphthyridin-7-yl)acetamide]	< 10 nM	–	–	< 10 nM
CCn1c(=O)c(-c2cc(NC(=O)Nc3ccccc3)c(F)cc2Cl)cc2cnc(NC(=O)OC)cc21 [Example 73, methyl (3-(2-chloro-4-fluoro-5-(3-phenylureido)phenyl)-1-ethyl-2-oxo-1,2-dihydro-1,6-naphthyridin-7-yl)carbamate]	10 to 100 nM	–	< 10 nM	10 to 100 nM
CNc1cc2c(cn1)cc(-c1cc(NC(=O)Nc3cccc(F)c3)c(F)cc1Cl)c(=O)n2C(C)C [Example 77, 1-(4-chloro-2-fluoro-5-(1-isopropyl-7-(methylamino)-2-oxo-1,2-dihydro-1,6-naphthyridin-3-yl)phenyl)-3-(3-fluorophenyl)urea]	< 10 nM	–	–	10 to 100 nM
CCn1c(=O)c(-c2cc(NC(=O)Nc3ccccc3)c(F)cc2Cl)cc2cnc(NC(=O)N3CC(O)C3)cc21 [Example 81, N-(3-(2-chloro-4-fluoro-5-(3-phenylureido)phenyl)-1-ethyl-2-oxo-1,2-dihydro-1,6-naphthyridin-7-yl)-3-hydroxyazetidine-1-carboxamide]	< 10 nM	–	–	10 to 100 nM
CCn1c(=O)c(-c2cc(NC(=O)Nc3ccc(F)c(CN4CCN(C)CC4)c3)c(F)cc2Cl)cc2cnc(NC)cc21 [Example 87, 1-(4-chloro-5-(1-ethyl-7-(methylamino)-2-oxo-1,2-dihydro-1,6-naphthyridin-3-yl)-2-fluorophenyl)-3-(4-fluoro-3-((4-methylpiperazin-1-yl)methyl)phenyl)urea]	10 to 100 nM	–	–	100 to 1000 nM
CCn1c(=O)c(-c2cc(NC(=O)Nc3ccccc3)c(F)cc2C)cc2cnc(NC(=O)N(C)C)cc21 [Example 101, 3-(1-ethyl-3-(4-fluoro-2-methyl-5-(3-phenylureido)phenyl)-2-oxo-1,2-dihydro-1,6-naphthyridin-7-yl)-1,1-dimethylurea]	< 10 nM	–	–	10 to 100 nM
CCn1c(=O)c(-c2cc(NC(=O)Nc3ccccc3)c(F)cc2Cl)cc2cnc(NC(=O)N3CC(N(C)C)C3)cc21 [Example 102, N-(3-(2-chloro-4-fluoro-5-(3-phenylureido)phenyl)-1-ethyl-2-oxo-1,2-dihydro-1,6-naphthyridin-7-yl)-3-(dimethylamino)azetidine-1-carboxamide]	< 10 nM	–	–	10 to 100 nM
